According to patent US12679812B2, “18F-labeled triazole containing PSMA inhibitors” (Cornell University, priority 2016, dated 2026):
Several values for one entry are separate records, joined by “and”; a condition that tells them apart may be missing. Equal entries are not always repeated. Marks after values point to notes of the source that are not given here.

Legend:
LNCaP xenograft tumor = experiment: microPET/CT imaging of LNCaP xenograft tumor-bearing mice; assay type: in vivo; conditions: for Max. LNCaP Tumor Uptake: image derived calculation of tumor uptake (microPET/CT), at time of maximum uptake; for Time p.i. of max. LNCaP tumor uptake: microPET/CT imaging at 1, 2, 4, 6 h
Procedure: Inoculation of mice with xenografts. All animal studies were approved by the Institutional Animal Care and Use Committee of Weill Cornell Medicine and were undertaken in accordance with the guidelines set forth by the USPHS Policy on Humane Care and Use of Laboratory Animals. Animals were housed under standard conditions in approved facilities with 12 h light/dark cycles. Food and water was provided ad libitum throughout the course of the studies. Male inbred athymic nu/nu mice were purchased from The Jackson Laboratory. For inoculation in mice, LNCaP cells were suspended at 4×10^7 cells/mL in a 1:1 mixture of PBS:Matrigel (BD Biosciences). Each mouse was injected in the left flank with 0.25 mL of the cell suspension. The mice were imaged when the tumors reached approximately 200-400 mm^3, while biodistributions were conducted when tumors were in the range 100-400 mm^3.
Imaging. […] Specific activity was greater than […]. The mice were imaged by pPET/CT (Inveon™; Siemens Medical Solutions, Inc.) at 1 h, 2 h, 4 h, and 6 h post-injection ([^18F]fluorinated compounds) or 1 h and 3 h post-injection ([^68Ga]Ga-PSMA-HBED-CC). Total acquisition time was thirty minutes, and a CT scan was obtained either immediately before or immediately after the acquisition for both anatomical co-registration and attenuation correction. The data were reconstructed using the commercial Inveon™ software supplied by the vendor. Tumor uptake was estimated by drawing a region of interest (ROI).

LNCaP tumor xenografts = conditions: 1 h post injection, reported; cited from earlier work
PSMA on LNCaP cells = molecular target: T1, PSMA on LNCaP cells (Homo sapiens, UniProt Q04609); experiment: Competitive binding assay against 99mTc-MIP-1427 for binding to PSMA on LNCaP cells; conditions: non-radioactive fluorine-containing ligands, 1 nM 99mTc-MIP-1427, 1 hour
T1 construct: host or cells: LNCaP
Procedure: Cell Culture. The human prostate cancer cell line, LNCaP, was obtained from the American Type Culture Collection. Cell culture supplies were from Invitrogen unless otherwise noted. LNCaP cells were maintained in RPMI-1640 medium supplemented with 10% fetal bovine serum (Hyclone), 4 mM L-glutamine, 1 mM sodium pyruvate, 10 mM N-2-hydroxyethylpiperazine-N-2-ethanesulfonic acid (HEPES), 2.5 mg/mL D-glucose, and 50 μg/mL gentamicin in a humidified incubator at 37° C./5% C02. Cells were removed from flasks for passage or for transfer to 12-well assay plates by incubating them with 0.25% trypsin/ethylenediaminetetraacetic acid (EDTA).
In vitro determination of IC50. IC50 values of the non-radioactive fluorine-containing ligands were determined by screening in a multi-concentration competitive binding assay against ^99mTc-((7S,12S,16S)-1-(1-(carboxymethyl)-1H-imidazol-2-yl)-2-((1-(carboxymethyl)-1H-imidazol-2-yl)methyl)-9,14-dioxo-2,8,13,15-tetraazaoctadecane-7,12,16,18-tetracarboxylic acid technetium tricarbonyl complex) (^99mTc-MIP-1427) for binding to PSMA on LNCaP cells, according to methods previously described. See Hillier S M, Maresca K P, Lu G, Merkin R D, Marquis J C, Zimmerman C N, Eckelman W C, Joyal J L, Babich J W. 99mTc-Labeled Small-Molecule Inhibitors of Prostate-Specific Membrane Antigen for Molecular Imaging of Prostate Cancer. J. Nucl. Med. 2013, 54, 1369-1376, incorporated herein by reference. The LNCaP cells were plated 48 hours prior to the experiment to achieve a density of approximately 5×10^5 cells/well (in triplicate) in RPMI-1640 medium supplemented with 0.25% bovine serum albumin prior to performing the assay. LNCaP cells were incubated for 1 hour with 1 nM ^99mTc-MIP-1427 in serum free RPMI-1640 medium in the presence of 1-10,000 nM test compounds. Radioactive incubation media was then removed by pipette and the cells were washed twice using 1 mL ice-cold HEPES buffer. Cells were harvested from the plates and transferred to tubes for radioactive counting using a Packard Cobra II Gamma Counter. IC50 values were determined by non-linear regression using GraphPad Prism software.

LNCaP tumor = conditions: literature value, cited from earlier work

T1 sequence (Q04609 whole entry): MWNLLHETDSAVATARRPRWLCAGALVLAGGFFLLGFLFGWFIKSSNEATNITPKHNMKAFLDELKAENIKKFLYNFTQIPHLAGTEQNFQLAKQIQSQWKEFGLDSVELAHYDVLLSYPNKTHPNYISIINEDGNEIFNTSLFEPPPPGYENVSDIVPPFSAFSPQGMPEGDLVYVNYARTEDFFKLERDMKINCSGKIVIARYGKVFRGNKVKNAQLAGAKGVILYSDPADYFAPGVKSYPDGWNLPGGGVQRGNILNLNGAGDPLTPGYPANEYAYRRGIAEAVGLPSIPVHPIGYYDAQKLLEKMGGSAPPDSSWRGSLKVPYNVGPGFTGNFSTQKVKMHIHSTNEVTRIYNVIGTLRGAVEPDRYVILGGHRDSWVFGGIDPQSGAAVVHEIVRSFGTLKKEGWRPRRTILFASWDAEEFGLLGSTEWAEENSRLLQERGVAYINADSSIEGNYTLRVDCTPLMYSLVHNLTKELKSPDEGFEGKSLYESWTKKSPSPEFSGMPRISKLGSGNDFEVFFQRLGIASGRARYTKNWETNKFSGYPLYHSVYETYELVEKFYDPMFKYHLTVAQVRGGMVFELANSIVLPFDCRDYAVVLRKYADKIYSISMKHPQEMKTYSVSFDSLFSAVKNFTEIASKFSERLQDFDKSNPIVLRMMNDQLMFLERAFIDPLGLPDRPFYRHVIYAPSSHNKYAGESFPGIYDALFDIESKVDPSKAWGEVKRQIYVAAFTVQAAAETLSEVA

| SMILES | Max. LNCaP Tumor Uptake (LNCaP xenograft tumor) | Time p.i. of max. LNCaP tumor uptake (LNCaP xenograft tumor) [h] | Tumor washout (LNCaP xenograft tumor; microPET/CT imaging up to 6 h post injection) | SUVmax (LNCaP tumor xenografts) | IC50 (PSMA on LNCaP cells) [µM] | Max. LNCaP Tumor Uptake (LNCaP tumor; 4 h p.i.) | Time p.i. of max. LNCaP tumor uptake (LNCaP tumor) [h] | Route of clearance / excretion (LNCaP xenograft tumor; from microPET/CT images) |
| --- | --- | --- | --- | --- | --- | --- | --- | --- |
| O=C(O)CCC(NC(=O)NC(CCCCNC(=O)c1ccc(F)nc1)C(=O)O)C(=O)O (centres unmarked) [DCFPyL, 2-(3-{1-Carboxy-5-[(6-fluoropyridine-3-carbonyl)-amino]-pentyl}-ureido)-pentanedioic acid, reference compound] | 5.71 ± 0.61^c % ID/g | 1 | rapid tumor washout | 1.1±0.1 |  |  |  |  |
| O=C(O)CC[C@H](NC(=O)N[C@@H](CCCCNC(=O)Nc1ccc(I)cc1)C(=O)O)C(=O)O [MIP-1095] |  |  |  |  | 0.0003 | 34.3 ± 12.7^a % ID/g | 4 |  |
| O=C(O)CC[C@H](NC(=O)N[C@@H](CCCCNC(=O)Nc1ccc(OCc2cn(CCF)nn2)cc1)C(=O)O)C(=O)O [RPS-038, (((S)-1-Carboxy-5-(3-(4-((1-(2-fluoroethyl)-1H-1,2,3-triazol-4-yl)methoxy)phenyl)ureido)pentyl)carbamoyl)-L-glutamic acid] | 8.87 ± 0.64^c % ID/g | 2 |  |  | 0.0213 |  |  |  |
| O=C(O)CC[C@H](NC(=O)N[C@@H](CCCCNC(=O)Nc1ccccc1OCc1cn(CCF)nn1)C(=O)O)C(=O)O [RPS-039, (((S)-1-Carboxy-5-(3-(2-((1-(2-fluoroethyl)-1H-1,2,3-triazol-4-yl)methoxy)phenyl)ureido)pentyl)carbamoyl)-L-glutamic acid] | 5.87±0.27 % ID/g and 5.89 ± 0.27^c % ID/g | 2 |  |  | 0.014 |  |  | clearance via the hepatobiliary pathway in addition to renal clearance |
